Experimental data published in patent publication US8148392B2, “2-indolyl imidazo [4,5-d] phenanthroline derivatives and their use in the treatment of cancer” (Lorus Therapeutics Inc., priority 2005, dated 2012).
“Also recorded” adds a separate entry of the source.

Columns and labels:
KLF4 protein = KLF4 protein in HT-29 cells, Western blot; type: cell-based, human; details: HT-29, 2.5, 5, 7.5 and 10 μM, 16 hours
Protocol: The ability of compound of Formula I to increase expression of KLF4 protein was determined as follows. HT-29 cells were treated with vehicle control (DMSO), TPEN (4 μM), ZnCl2 (100 μM), or compound 3 (2.5, 5, 7.5 and 10 μM) for 16 hours. Cells were lysed and subjected to Western blot with anti-KLF4 antibodies, or GAPDH antibodies to ensure equal protein loading.

CCRF-CEM leukemia cells = assay: Apoptosis, annexin V-FITC/PI flow cytometry, CCRF-CEM; type: cell-based, human; details: 0.1-1 μM, 24 hours
Protocol: The ability of compound 3 to alter the population of cells at different stages of apoptosis was measured by determining the effect of compound 3 on populations of CCRF-CEM leukemia cells treated with vehicle (DMSO), 0.1 μM, 0.25 μM, 0.5 μM, or 1 μM of compound 3 for 24 hours. CCRF-CEM cells were seeded and treated with the above concentrations of compound 3 or 0.1% DMSO vehicle control as described in Example 23. After 24 hours, the cells were collected by centrifugation and re-suspended in growth media to approximately 1×10^6 cells/ml. Then the cells were stained for annexin V binding and PI staining using the annexin V-FITC apoptosis detection kit (Oncogene™ research products, Mass.) and following the manufacturer's RAPID Annexin V Binding protocol. The fluorescence of stained cells was analyzed using FACScan flow cytometer and the Cell Quest program (BD Biosciences, San Jose, Calif.). Data were evaluated using Modfit software (Verity software House, Topsham, Me.) to generate quadrant statistics. Cells stained with Annexin V only are considered to be in early apoptosis, whereas cells stained with both Annexin V and propidium iodide are considered to be in late apoptosis. Cells stained with propidium iodide only are non-viable, whereas no staining indicates viable cells. MOLT-4 leukemia cells were treated similarly.

KLF4 = KLF4 mRNA in HT-29 tumour xenografts, RT-PCR; type: in vivo, CD-1 female nude mice
Protocol: The ability of compound 3 to modulate expression of KLF4 in HT-29 colon tumour xenograft was determined as follows. Groups of 10 CD-1 female nude mice (6-7 weeks) were injected in the lower mid back with human colon adenocarcinoma cells HT-29 cells (3×10^6 cells in 0.1 ml PBS) subcutaneously. […] After the treatment period, the animals were sacrificed, the tumours excised, and total RNA was extracted from 30 mg of tumour tissue using Rneasy Mini kit (QIAGEN, Valencia, Calif.). The expression of KLF4 mRNA was analyzed by real-time polymerase chain reaction using the comparative CT method as described in Example 19. […]
To examine the effect of compound 3-mediated changes in KLF4 and Cyclin D1 expressions in vivo, the expressions of respective genes in xenograft tissues of vehicle control (Lutrol) and compound 3-treated HT-29 colon cancer cell-transplanted mice were analyzed by RT-PCR (FIG. 46). Briefly, KLF4 and Cyclin D1 gene expression in HT-29 xenograft tissues after 14 days treatment with compound 3 was measured as follows. […] Total RNA was extracted and gene expression level was determined by RT-PCR. […]
The tumor regression efficacy of compound 3 was assessed in compound 3-treated HT-29-transplanted athymic mice (FIG. 54A), and correlated with gene expressions of MTF-1, KLF4 and Cyclin D1 in HT-29 xenograft tissues (FIG. 54B). […]

HT-29 cells = assay: HT-29 cell proliferation (XTT) after knock-down of KLF4 gene by siRNA; type: cell-based, human; details: HT-29, XTT
Protocol: Small interfering RNA (siRNA) transfection was performed as follows. Pre-designed MTF-1 siRNA (ID #115734) (Ambion, Austin, Tex.) was used to knockdown endogenous MTF-1 mRNA. Similarly, pre-designed KLF4 siRNA (ID #115492) (Ambion, Austin, Tex.) was used to knockdown endogenous KLF4 mRNA. A nonspecific, double-stranded RNA
was synthesized at Qiagen (Cambridge, Mass.) based on the sequence of an unrelated gene. HT-29 cells (3×10^5 cells in 35 mm-culture dishes) were transfected with indicated concentrations of siRNA or scrambled RNA control using Lipofectamine™ 2000 transfection reagent (Invitrogen) by following the manufacturer's instruction, for 6 hr. At the end of the incubation period, the transfection medium was supplemented with a complete growth medium and the cells were incubated at 37° C. for 24 hr before indicated experiments.

[1] = tested on: fourth leukemia cell line (a myeloma cell line); assay: NCI DTP in vitro screen, fourth leukemia cell line; type: cell-based; details: Homo sapiens
Protocol: For example, the following methodology, which is currently employed by the NCI, can be used to assess the GI50 of a candidate compound of Formula I in the selected cancer cell lines. Briefly, cell suspensions are diluted (5000-40,000 cells per well) and 100 μL of the diluted cell suspension is added into 96-well microtiter plates. Inoculates are allowed a preincubation period of 24 h at 37° C. for stabilization. Dilutions at twice the intended test concentration of the candidate compound are added at time zero in 100 μL aliquots to the microtiter plate wells. Test compounds are generally evaluated at five 10-fold dilutions. In routine testing, the highest well concentration is usually 10E-4 M, but this may be adjusted depending on the compound being tested. […] The cells are then assayed by using the sulforhodamine B assay (see, for example, Skehan, P., et al. (1990) JNCI, J. Natl. Cancer Inst. 82, 1107-1112; and Chen, S. F., et al. (1990) Proc. Am. Assoc. Cancer Res. 31, A2644) employing a plate reader which can be used to read the optical densities.
Compounds 2 and 3 were evaluated for their antiproliferative effects in a panel of 60 human cancer cell lines as part of the in vitro anticancer screening services provided by the DTP (Developmental Therapeutics Program) of the US National Cancer Institute (NCI).

Structure (SMILES): Cc1[nH]c2ccccc2c1-c1nc2c3cccnc3c3ncccc3c2[nH]1 [Compound 3]
- level of KLF4 protein (KLF4 protein): able to increase the level of KLF4 protein
- induction of apoptosis (CCRF-CEM leukemia cells): increase in the number of early and late apoptotic cells
- induction of KLF4 in tumour xenografts (KLF4; 50 mg/kg/d, 35 days, versus vehicle): approximately 1.5 fold
- KLF4 gene expression in xenograft tissue, change (KLF4; 100 mg/kg i.p., 14 days or 2 cycles of 5 days): increase in KLF4 gene; also recorded: significant increase in KLF4
- cell growth inhibition after knock-down of KLF4 gene by siRNA (HT-29 cells): loss of compound 3-mediated cell growth inhibition
- GI50 [1]: 2880 nM
